From publication PMC12730730, “CAPE Derivatives as Potent Agents for Induction of Osteogenic Differentiation in DPSCs and Biomaterial Development” (Biomedicines, 2025)
Entries after “also recorded” stand apart in the source; their conditions may differ.

Key:
[1] = system: SAOS-2 osteoblastic cell lines; details: cited from earlier work
osteoblastic cells = system: osteoblastic cells; parameters: method as in PMID 17979115; details: cited from earlier work
calvarial-derived cells = system: calvarial-derived cells; parameters: method as in Jun et al. 54; details: long-term cultures of calvarial-derived cells; ref Jun et al. 54; cited from earlier work
[2] = Kinetic of chemical hydrolysis in 0.02 M phosphate buffer, HPLC; format: physicochemical; details: for half-life: phosphate buffer
Experimental: For compounds 1a and 1d, the chromatographic analyses were performed using a 1260 Infinity II HPLC (Agilent, Santa Clara, CA, USA) consisting of a 1260 Infinity II Quaternary Pump (model G7111A), 1260 Infinity II auto-sampler (model G7129A), a 1260 Infinity II Multicolumn Thermostat (model G7116A), and a 1260 Infinity II Diode Array Detector (model G7115A) equipped with Poroshell 120 EC-C18 (150 × 4.6 mm i.d., particle size 4 µm, Agilent), operating at 20 °C.
Samples were run using a mixture of water and acetonitrile, enriched with trifluoroacetic acid (0.1% v/v) as mobile phase, in a gradient elution mode starting from 90% to 10% of water over 15 min (Table 2) at a flow rate of 0.8 mL/min. Stock solutions (10 mg/mL) were prepared by dissolving the exact amount of each compound in DMSO and acetonitrile (1:1), and then diluted with acetonitrile to reach 250 µg/mL concentration and analyzed by HPLC, setting the UV-detector at 254 nm.
CAPE, 1a and 1d stock solutions (10 mg/mL) were diluted in prewarmed (37 ± 0.5 °C) PBS solution to reach 10^−4 M concentration (50 mL); these conditions were used to initiate the reaction. At established time points, samples of 250 µL were withdrawn, filtered, and analyzed by HPLC. The pseudo-first-order rate constant (kobs) for the compound hydrolysis was calculated from the slops of the linear plots of ln (% residual compound) against time. The samples were analyzed in triplicate.

[3] = system: Alkaline phosphatase (ALP) activity in DPSCs; assay: Alkaline phosphatase (ALP) activity in supernatants of differentiating DPSCs; format: cell-based; details: 0.5 µM; 3, 7, 14, 21 and 28 days; vs control (diff)
Experimental: (§1) DPSCs were seeded at a density of 3.5 × 10^4 in 12-well plates in the presence of differentiation medium, which consists of complete α-MEM supplemented with 10 nM dexamethasone, 10 mM β-glycerophosphate and 0.2 mM ascorbic acid phosphate (all purchased from Sigma-Aldrich, St. Louis, MO, USA). At the established experimental times (3, 7, 14, 21 and 28 days), cells and/or supernatants were collected for further analyses.
A colorimetric Alkaline Phosphate Assay Kit (Abcam, Cambridge, UK) was used following manufacturer’s instructions. Briefly, 50 µL of 5 mM p-nitrophenyl phosphate (pNPP) was added to 80 µL of each supernatant and then incubated for 1 h at room temperature in the dark. After the addition of 20 µL of stopping solution, the absorbance was read at 405 nm wavelength through a microplate reader (Multiskan GO, Thermo Fisher Scientific). The ALP activity (mU/mL/min) was calculated in accordance with the manufacturer’s protocol.

BMP2 = assay: Real-time RT-PCR, BMP2 gene expression in DPSCs; format: cell-based; details: 0.5 µM, vs Control (diff)
Experimental: (§2) After 7, 14, and 21 days of treatment, DPSCs were collected and RNA was extracted by PureLink® RNA Mini Kit (Life Technologies, Carlsbad, CA, USA). An amount of 300 µL of lysis buffer supplied with 1% of 2-mercaptoethanol and then 300 µL of 70% v/v ethanol were added to each cell pellet, and samples were transferred into the Spin Cartridge for RNA extraction and purification. After washing with Wash Buffer supplied by the kit, samples were incubated for 15 min with 80 µL of DNase mixture (On-column PureLink® DNase Treatment, Thermo Fisher Scientific) to remove contaminating DNA. RNA extracted from each sample was eluted in 30 µL of Nuclease-Free Water. RNA concentration (ng/µL) was determined through Qubit® RNA BR Assay Kits (Thermo Fisher Scientifc).
(§3) A total of 1 µg of RNA was reverse-transcribed by high-capacity cDNA Reverse Transcription Kit (Life Technologies). Samples were incubated in a thermal cycler at 25 °C for 10 min, 37 °C for 2 h, and 85 °C for 5 min.
(§4) For all the examined mRNAs, gene expression was determined by quantitative PCR using PowerUpTM SYBRTM Green Master Mix (2×) (Thermo Fisher Scientific). Each amplification reaction was performed in a MicroAmp® Optical 96-well Reaction Plate (Life Technologies, Carlsbad, CA, USA) in a reaction volume of 20 µL made up of 10 µL of SYBR Green, 1 µM of each primer (stock solution 100 µM), 10 ng of cDNA and Nuclease-Free Water.
(§5) The run consisted of 50 °C for 2 min, 95 °C for 2 min, 40 cycles of amplification at 95 °C for 15 s and 60 °C for 1 min in QuantStudio 3 (Thermo Fisher Scientific). QuantStudio™ Design & Analysis Software v1.5.1 (Thermo Fisher Scientific) was used to elaborate gene expression data. The authenticity of the PCR products was verified by melt curve analysis. Each gene expression value was normalized to the expression level of 18S. The fold changes of the investigated genes were expressed in relation to the level of 18S at different time points. The relative abundance of mRNA (relative quantification) was quantified using the comparative ^2−∆∆Ct method.

DPSCs [4] = assay: Crystal violet cell viability assay of DPSCs in osteogenic medium; format: cell-based; details: 0.5, 1 and 5 µM; 3, 7, 14, 21 and 28 days; vs Control (diff)
Experimental: Dental pulp stem cells (DPSCs) were cultured in α-MEM medium (Merck, Darmstadt, Germany), supplemented with 10% fetal bovine serum (FBS) and 1% penicillin/streptomycin (Euroclone S.p.A., Milan, Italy). The cells were purchased from Lonza (Lonza Group Ltd., Basel, Switzerland) and kept at 37 °C and 5% CO2.
Cell viability (relative numbers compared to control cells) was determined by a crystal violet assay. After reaching the growth exponential phase, DPSCs were seeded into 48-well culture plates at a density of 8 × 10^3 cells per well. After 24 h, different concentrations (ranging from 0 to 5 µM) of each compound (1a, 1d, 2a and 2d) were added to DPSCs in an osteogenic medium, whereas cells cultured in the same osteogenic medium without CAPE derivatives served as control. After 3, 7, 14, 21, and 28 days, the medium was removed from each well, a wash with PBS was performed and cell were then fixed with glutaraldehyde (1%), and stained at room temperature with a crystal violet solution (0.02%) (both from Thermo Fisher Scientific, Waltham, MA, USA). After 30 min, the cells were rinsed with tap water, and bound crystal violet was dissolved in 70% ethanol. Then, absorbance was read at 600 nm with a spectrophotometer (Multiskan GO, Thermo Fisher Scientific, Waltham, MA, USA). The optical density readings were used to indicate cell survival relative to untreated cultures.

DPSCs [5] = assay: Alizarin Red S staining, extracellular mineralized matrix deposition; format: cell-based; details: for Extracellular mineralized matrix deposition compared to non-treated cells (Alizarin Red): 28 days in differentiation medium, 0.5, 1 and 5 µM; for Concentrations at which matrix deposition / mineralization is enhanced: 28 days, tested 0.5, 1 and 5 µM
Experimental: as §1
Alizarin red staining was performed after 28 days, by washing twice with PBS with Ca^2+/Mg^2+ each well, and fixing the cell monolayer of DPSCs in paraformaldehyde 4% for 15 min at room temperature. After washing twice with deionized water, 40 mM Alizarin Red S solution (Sigma-Aldrich) was added to each well and left at room temperature for 20 min on a shaker, followed by several rinses with deionized water in order to eliminate dye excess. For the spectrophotometric evaluation of calcium level deposits, 800 µL/well of 10% acetic acid was added to each well and then incubated for 30 min in agitation. Wells were then scraped and the sample containing calcium deposits was collected and vortexed. After the addition of hot mineral oil (Sigma-Aldrich), the samples were incubated on ice for 5 min and then centrifuged at 20,000× g for 15 min. After the removal of the supernatant, 10% ammonium hydroxide was added, and the optical density of 150 µL aliquots of this solution was measured at 405 nm through a microplate reader (Multiskan GO, Thermo Fisher Scientific).

[6] = parameters: method as in PMID 39054610; details: 30 min at 50 °C; cited from earlier work
[7] = Thermal stability of the solid compounds, 1H-NMR before and after heating; format: physicochemical; details: 20 min at 100 °C, water bath, solid compound
Experimental: To ensure the suitability of compounds 1a and 1d for adsorption onto biomaterials, their thermal stability was confirmed. Initially, ^1H-NMR spectra were acquired for the compounds. Subsequently, they were subjected to heating for 20 min at 100 °C by immersing glass tubes containing the solid compounds in a water bath. Following the heating process, their ^1H-NMR spectra were reacquired and compared with the initial spectra to assess any alterations.

Collagen type I = assay: ELISA of collagen type I release in DPSC supernatants; format: cell-based, human; details: 0.5 µM; 7, 14 and 21 days; normalized on crystal violet values
Experimental: as §1
The release of collagen type I in cell supernatants was measured by a Human Collagen Type 1 ELISA kit (Cosmo Bio Co., Ltd., Tokyo, Japan; cat. no. ACE-EC1-E105-EX). The absorbance was measured at 450 nm spectrophotometrically (Multiskan GO, Thermo Fisher Scientific). The concentration of collagen type I (µg/mL) was calculated using a standard curve generated with specific standards provided by the manufacturers and normalized with the crystal violet values.

Osterix (SP7) = assay: Real-time RT-PCR, Osterix (SP7) gene expression in DPSCs; format: cell-based; details: 0.5 µM, vs control sample
Experimental: as §2, §3, §4, §5

| SMILES | Kobs ([2]; pH 4.5, 37 °C) | t1/2 ([2]; pH 4.5, 37 °C) | Kobs ([2]; pH 7.4) | half-life ([2]; pH 4.5, pH 4.5, 37 °C) [h] | half-life ([2]; pH 7.4, pH 7.4) [h] | Thermal stability (identical 1H NMR spectra before and after heat) [7] | ALP activity compared to non-treated cells [3] | BMP2 relative gene expression (BMP2; 21 days) | Cell viability / toxicity towards DPSCs (DPSCs [4]) | Extracellular mineralized matrix deposition compared to non-treated cells (Alizarin Red) (DPSCs [5]) | Concentrations at which matrix deposition / mineralization is enhanced (DPSCs [5]) | Thermal stability (consistent 1H NMR spectra before and after heat) [6] | Collagen type I release with respect to the control sample (Collagen type I) | Osx (SP7) relative gene expression (Osterix (SP7); 21 days) [fold] | also measured |
| --- | --- | --- | --- | --- | --- | --- | --- | --- | --- | --- | --- | --- | --- | --- | --- |
| O=C(/C=C/c1ccc(O)c(O)c1)OCCc1ccccc1 [CAPE, caffeic acid phenethyl ester] | 0.006 (±0.0009) h^−1 | 117.5 (±2.10) h | 0.018 (±0.004) h^−1 | 117 | 38.5 |  |  |  |  |  |  |  |  |  | Cytotoxicity at similar concentrations (0.5-5 µM range) ([1]; SAOS-2 osteoblastic cell lines): does not exhibit cytotoxicity; Concentrations that reduce cell viability [1]: above 10 µM; ECM mineralization (osteoblastic cells; CAPE at 10 μM): reduction in ECM mineralization; ECM mineralization compared to the control group (osteoblastic cells; CAPE at concentrations up to 100 nM): greater mineralization; Concentrations at which toxicity is reported (calvarial-derived cells): above 17.6 µM |
| O=C(/C=C/c1ccc(O)c(O)c1)Nc1cccc2cccnc12 [compound 2d] |  |  |  |  |  |  | significantly higher than non-treated cells at all time points | higher BMP2 expression only after 21 days | no toxicity | more effective in enhancing matrix deposition | only enhance mineralization at the lowest concentration |  |  |  |  |
| O=C(/C=C/c1ccccc1)Nc1cccc2cccnc12 [compound 2a] |  |  |  |  |  |  |  |  | no toxicity | no significant changes |  |  |  |  |  |

Now from value to molecule, other results behind:

| Kobs ([2]; pH 4.5, 37 °C) | t1/2 ([2]; pH 4.5, 37 °C) | Kobs ([2]; pH 7.4) | half-life ([2]; pH 4.5, pH 4.5, 37 °C) [h] | half-life ([2]; pH 7.4, pH 7.4) [h] | Thermal stability (identical 1H NMR spectra before and after heat) [7] | SMILES | ALP activity compared to non-treated cells [3] | BMP2 relative gene expression (BMP2; 21 days) | Cell viability / toxicity towards DPSCs (DPSCs [4]) | Extracellular mineralized matrix deposition compared to non-treated cells (Alizarin Red) (DPSCs [5]) | Concentrations at which matrix deposition / mineralization is enhanced (DPSCs [5]) | Thermal stability (consistent 1H NMR spectra before and after heat) [6] | Collagen type I release with respect to the control sample (Collagen type I) | Osx (SP7) relative gene expression (Osterix (SP7); 21 days) [fold] | also measured |
| --- | --- | --- | --- | --- | --- | --- | --- | --- | --- | --- | --- | --- | --- | --- | --- |
| 0.009 (±0.0008) h^−1 |  |  | 80.6 |  | stable | O=C(/C=C/c1ccccc1)Oc1cccc2cccnc12 [compound 1a] | significantly higher than non-treated cells at all time points | 2.2 fold | no toxicity | more effective in enhancing matrix deposition | across all tested concentrations | stable | higher quantity of Collagen type I | 2.26 | BMP2 relative gene expression (BMP2; 14 days): 1.2 fold; Osx (SP7) relative gene expression (Osterix (SP7); 14 days): 4.8 fold; t1/2 ([2]; pH 7.4): no degradation; also recorded: stable |
|  | no degradation; also recorded: stable | 0.033 (±0.002) h^−1 |  | 21.2 | stable | O=C(/C=C/c1ccc(O)c(O)c1)Oc1cccc2cccnc12 [compound 1d] | significantly higher than non-treated cells at all time points |  | no toxicity | more effective in enhancing matrix deposition | only enhance mineralization at the lowest concentration | stable | higher quantity of Collagen type I | 2.19 | BMP2 relative gene expression (BMP2; 7 days): significantly increased BMP2 expression |
